Reference: patent US7622611B2, “Pentafluorosulfanylbenzoylguanidines, process for their preparation, use as a medicament or diagnostic aid, and medicament comprising same” (Sanofi-Aventis Deutschland GmbH, priority 2003, dated 2009)

What was measured:
[1] = In vivo pharmacokinetics, profiling with the "n in one method" in beagle dog; conditions: for Volume of distribution: fasting male beagle dog, single i.v. bolus into jugular vein, about 1 mg/kg, both substances given together
Procedure: In vivo pharmacokinetics—profiling with the “n in one method”
The exposure data and the volumes of distribution were determined as characteristic pharmacokinetic data as follows:
The NHE-1 inhibitor of example 1 of the invention and, as reference substance, the known NHE-1 inhibitor cariporide with formula
[drawing 23] were dissolved in an aqueous, slightly acidic medium (water, pH 4, adjusted with 1M hydrochloric acid). The concentration of the aqueous formulation prepared in this way was about 1.5 mg of each substance per 1 g of solution. 10 ml of this formulation were administered as a single bolus by catheter into the jugular vein of a fasting male beagle dog (dose about 1 mg of each substance administered per kg of the dog's body weight). Blood samples were taken by means of a second catheter after 5 min, 15 min, 30 min, 1 h, 2 h, 4 h, 8 h and 24 h, and heparinized plasma was prepared by centrifugation at 1000 G in appropriate plasma tubes.
The plasma samples were worked up and, after an HPLC separation, quantified by MS/MS. The high specificity of this method permitted simultaneous determination of a plurality of substances. The exposures could be calculated using the WinNonlin computer program from the concentration-time plots (see FIG. 1) and compared with the exposure of the known NHE-1 reference substance. Since the various substances were measured in the same animal at the same time, the result was an accurate comparison of the compounds, and a ranking of the volumes of distribution was possible.
FIG. 1: concentration-time plots in the blood plasma of dogs after administration of in each case approx. 1 mg/kg of the compound of example 1 and of cariporide.

human NHE-1 = target: T1, human NHE-1 (Homo sapiens, UniProt P19634); experiment: NHE-1 inhibition, FLIPR assay measuring pHi recovery in transfected cell lines; type: cell-based; conditions: transfected LAP-1 cell line expressing human NHE-1, BCECF pHi recovery, read-out: NHE1 inhibition IC50
T1 construct: expressed in transfected cells; host or cells: LAP-1 (parental line without endogenous NHE activity), G418 selection
Procedure: The inhibitory concentration IC50 for NHE-1 inhibition was determined as follows:
IC50 for NHE-1 inhibition was determined in an FLIPR assay by measurement of the pHi recovery in transfected cell lines which express human NHE-1.
The assay was carried out in an FLIPR (fluorometric imaging plate reader) with black-walled 96-well microtiter plates with clear bases.
The growth medium for the transfected cells (Iscove+10% fetal calf serum) additionally contained G418 as selection antibiotic in order to ensure the presence of the transfected sequences.
The actual assay started with the removal of the growth medium and addition of 100 μl of loading buffer per well (5 μM BCECF-AM [2′,7′-bis(carboxyethyl)-5-(and -6-)carboxyfluorescein, acetoxymethyl ester] in 20 mM NH4Cl, 115 mM choline chloride, 1 mM MgCl2, 1 mM CaCl2, 5 mM KCl, 20 mM HEPES, 5 mM glucose; pH 7.4 [adjusted with KOH]). The cells were then incubated at 37° C. for 20 minutes. This incubation led to loading of the cells with the fluorescent dye whose fluorescence intensity depends on pHi, and with NH4Cl that made the cells slightly alkaline.
The nonfluorescent dye precursor BCECF-AM is, as ester, membrane-permeable. The actual dye BCECF is not membrane-permeable but is liberated inside cells by esterases. […]

T1 sequence (P19634 whole entry): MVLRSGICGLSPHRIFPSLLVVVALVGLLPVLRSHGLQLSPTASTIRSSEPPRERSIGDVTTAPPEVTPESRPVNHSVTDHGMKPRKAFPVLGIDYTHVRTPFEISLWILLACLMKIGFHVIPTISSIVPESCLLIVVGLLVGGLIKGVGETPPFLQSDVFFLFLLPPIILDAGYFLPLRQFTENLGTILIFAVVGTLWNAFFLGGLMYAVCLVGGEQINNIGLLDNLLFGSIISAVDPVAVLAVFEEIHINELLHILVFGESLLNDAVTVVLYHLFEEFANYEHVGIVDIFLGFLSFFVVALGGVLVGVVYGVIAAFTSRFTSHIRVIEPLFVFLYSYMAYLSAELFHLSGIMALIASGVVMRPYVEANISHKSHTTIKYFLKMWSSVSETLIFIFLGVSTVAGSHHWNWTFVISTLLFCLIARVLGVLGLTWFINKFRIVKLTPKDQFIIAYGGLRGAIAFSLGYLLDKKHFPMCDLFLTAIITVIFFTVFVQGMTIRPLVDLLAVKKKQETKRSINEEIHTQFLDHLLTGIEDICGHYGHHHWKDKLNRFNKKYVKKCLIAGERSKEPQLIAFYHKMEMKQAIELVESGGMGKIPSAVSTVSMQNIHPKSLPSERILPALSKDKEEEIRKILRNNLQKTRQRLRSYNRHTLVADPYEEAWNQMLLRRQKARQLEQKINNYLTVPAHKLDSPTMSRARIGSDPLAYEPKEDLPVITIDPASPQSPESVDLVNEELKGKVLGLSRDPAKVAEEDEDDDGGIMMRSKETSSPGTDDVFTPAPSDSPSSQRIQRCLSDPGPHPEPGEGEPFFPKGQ

SMILES | Detectability in plasma after 24 hours ([1]; dog plasma, 24 h after about 1 mg/kg i.v.) | Volume of distribution [1] | IC50 (human NHE-1) | melting point | Exposure relative to reference substance cariporide (times higher) ([1]; dog plasma, about 1 mg/kg i.v., from concentration-time plots, FIG. 1)
CC(C)c1ccc(C(=O)N=C(N)N)cc1S(C)(=O)=O.CS(=O)(=O)O [cariporide, reference compound] | no longer detectable | 2.94 l/kg of body weight |  |  | 
Cc1cc(S(F)(F)(F)(F)F)c(S(C)(=O)=O)cc1C(=O)N=C(N)N [Example 1, N-(5-Methanesulfonyl-2-methyl-4-pentafluorosulfanylbenzoyl)guanidine] |  | 1.67 l/kg of body weight | 49 nM | 254 to 256 °C | 2-3 times
